According to US8163724B2, “Glucocorticosteroids, processes for their preparation, pharmaceutical compositions containing them and their use in therapy” (AstraZeneca AB, priority 2007, dated 2012):

Biological target: T1, recombinant human GR (Homo sapiens, UniProt P04150)
T1 construct: purchased Panvera/Invitrogen P2812 (kit P2893)
T1 sequence (P04150 1-777): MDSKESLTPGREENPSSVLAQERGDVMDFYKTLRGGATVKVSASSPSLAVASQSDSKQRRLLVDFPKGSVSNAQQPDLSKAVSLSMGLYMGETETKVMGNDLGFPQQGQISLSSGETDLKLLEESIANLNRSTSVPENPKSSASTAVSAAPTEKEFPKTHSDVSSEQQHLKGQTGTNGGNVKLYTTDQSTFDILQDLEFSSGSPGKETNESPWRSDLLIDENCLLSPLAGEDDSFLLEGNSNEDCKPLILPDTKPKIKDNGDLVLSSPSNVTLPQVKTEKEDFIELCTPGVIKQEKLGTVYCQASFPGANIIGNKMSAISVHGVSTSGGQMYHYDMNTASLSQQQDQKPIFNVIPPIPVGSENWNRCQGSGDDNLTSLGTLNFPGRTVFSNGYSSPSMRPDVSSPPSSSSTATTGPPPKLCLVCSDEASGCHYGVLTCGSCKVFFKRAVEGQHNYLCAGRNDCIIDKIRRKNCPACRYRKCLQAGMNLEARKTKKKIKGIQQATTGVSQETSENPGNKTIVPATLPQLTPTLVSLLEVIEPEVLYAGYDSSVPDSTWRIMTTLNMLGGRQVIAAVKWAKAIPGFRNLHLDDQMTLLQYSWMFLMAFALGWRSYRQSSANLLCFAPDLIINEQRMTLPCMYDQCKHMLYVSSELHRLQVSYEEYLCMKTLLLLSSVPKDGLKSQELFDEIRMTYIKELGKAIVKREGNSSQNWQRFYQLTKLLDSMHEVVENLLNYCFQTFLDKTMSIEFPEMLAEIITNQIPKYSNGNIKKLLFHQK
Test: Human Glucocorticoid Receptor (GR) Assay (fluorescence polarization, Panvera/Invitrogen kit)
Assay type: binding
Conditions: fluorescence polarization; GS Red tracer; 2 hours at room temperature; 100% control 10 μM Dexamethasone; read-out: Inhibition of GR binding, IC50
How it was run: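 Fluorescence polarization competition with recombinant GR and GS Red fluorescent ligand plus stabilizing peptide and DTT in potassium phosphate/sodium molybdate/EDTA buffer with DMSO. Incubated 2 hours at room temperature in the dark; 0% control DMSO, 100% control 10 μM dexamethasone.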

SMILES | IC50
C[C@]12Cc3cnn(-c4cc(F)cc(F)c4)c3C=C1CC[C@@H]1[C@@H]2[C@@H](O)C[C@@]2(C)[C@H]1CC[C@]2(OC(=O)c1ccco1)C(=O)SCC#N [Example 102, (1R,3aS,3bS,10aR,10bS,11S,12aS)-1-{[(Cyanomethyl)thio]carbonyl}-7-(3,5-difluorophenyl)-11-hydroxy-10a,12a-dimethyl-1,2,3,3a,3b,4,5,7,10,10a,10b,11,12,12a-tetradecahydrocyclopenta[5,6]naphtho[1,2-f]indazol-1-yl furan-2-carboxylate] | 8.2 nM
C[C@]12Cc3cnn(-c4ccc(F)c(F)c4)c3C=C1CC[C@@H]1[C@@H]2[C@@H](O)C[C@@]2(C)[C@H]1CC[C@]2(OC(=O)c1ccco1)C(=O)SCC#N [Example 103, (1R,3aS,3bS,10aR,10bS,11S,12aS)-1-{[(Cyanomethyl)thio]carbonyl}-7-(3,4-difluorophenyl)-11-hydroxy-10a,12a-dimethyl-1,2,3,3a,3b,4,5,7,10,10a,10b,11,12,12a-tetradecahydrocyclopenta[5,6]naphtho[1,2-f]indazol-1-yl furan-2-carboxylate] | 6.4 nM
CCOC(=O)[C@@]1(O)CC[C@H]2[C@@H]3CCC4=Cc5c(cnn5-c5ccc(F)cc5)C[C@]4(C)[C@H]3[C@@H](O)C[C@@]21C [Example 104, Ethyl (1R,3aS,3bS,10aR,10bS,11S,12aS)-7-(4-fluorophenyl)-1,11-dihydroxy-10a,12a-dimethyl-1,2,3,3a,3b,4,5,7,10,10a,10b,11,12,12a-tetradecahydrocyclopenta[5,6]naphtho[1,2-f]indazole-1-carboxylate] | 4.2 nM
C[C@]12Cc3cnn(-c4ccccn4)c3C=C1CC[C@@H]1[C@@H]2[C@@H](O)C[C@@]2(C)[C@H]1CC[C@]2(OC(=O)c1ccco1)C(=O)OCC#N [Example 105, Cyanomethyl(1R,3aS,3bS,10aR,10bS,11S,12aS)-1-[(furan-2-ylcarbonyl)oxy]-11-hydroxy-10a,12a-dimethyl-7-pyridin-2-yl-1,2,3,3a,3b,4,5,7,10,10a,10b,11,12,12a-tetradecahydrocyclopenta[5,6]naphtho[1,2-f]indazole-1-carboxylate] | 6.1 nM
C[C@]12Cc3cnn(-c4ccc(S(C)(=O)=O)cc4)c3C=C1CC[C@@H]1[C@@H]2[C@@H](O)C[C@@]2(C)[C@H]1CC[C@]2(OC(=O)c1ccco1)C(=O)SCC#N [Example 106, (1R,3aS,3bS,10aR,10bS,11S,12aS)-1-{[(Cyanomethyl)sulfanyl]carbonyl}-11-hydroxy-10a,12a-dimethyl-7-[4-(methylsulfonyl)phenyl]-1,2,3,3a,3b,4,5,7,10,10a,10b,11,12,12a-tetradecahydrocyclopenta[5,6]naphtho[1,2-f]indazol-1-yl furan-2-carboxylate] | 160 nM
CN(C)C(=O)SC(=O)[C@@]1(OC(=O)c2ccco2)CC[C@H]2[C@@H]3CCC4=Cc5c(cnn5-c5cc(F)cc(F)c5)C[C@]4(C)[C@H]3[C@@H](O)C[C@@]21C [Example 107, (1R,3aS,3bS,10aR,10bS,11S,12aS)-7-(3,5-Difluorophenyl)-1-{[(dimethylcarbamoyl)sulfanyl]carbonyl}-11-hydroxy-10a,12a-dimethyl-1,2,3,3a,3b,4,5,7,10,10a,10b,11,12,12a-tetradecahydrocyclopenta[5,6]naphtho[1,2-f]indazol-1-yl furan-2-carboxylate] | 59 nM
COC(=O)c1cccc(-n2ncc3c2C=C2CC[C@@H]4[C@H]([C@@H](O)C[C@@]5(C)[C@H]4CC[C@]5(OC(=O)c4ccco4)C(=O)SCF)[C@@]2(C)C3)c1 [Example 108, (1R,3aS,3bS,10aR,10bS,11S,12aS)-1-{[(Fluoromethyl)sulfanyl]carbonyl}-11-hydroxy-7-[3-(methoxycarbonyl)phenyl]-10a,12a-dimethyl-1,2,3,3a,3b,4,5,7,10,10a,10b,11,12,12a-tetradecahydrocyclopenta[5,6]naphtho[1,2-f]indazol-1-yl furan-2-carboxylate] | 6.6 nM
CC(=O)O[C@]1(C(=O)SCC#N)CC[C@H]2[C@@H]3CCC4=Cc5c(cnn5-c5ccc(F)cc5)C[C@]4(C)[C@H]3[C@@H](O)C[C@@]21C [Example 109, (1R,3aS,3bS,10aR,10bS,11S,12aS)-1-{[(Cyanomethyl)sulfanyl]carbonyl}-7-(4-fluorophenyl)-11-hydroxy-10a,12a-dimethyl-1,2,3,3a,3b,4,5,7,10,10a,10b,11,12,12a-tetradecahydrocyclopenta[5,6]naphtho[1,2-f]indazol-1-yl acetate] | 4.1 nM
CC(=O)O[C@]1(C(=O)SCF)CC[C@H]2[C@@H]3CCC4=Cc5c(cnn5-c5ccc(F)cc5)C[C@]4(C)[C@H]3[C@@H](O)C[C@@]21C [Example 110, (1R,3aS,3bS,10aR,10bS,11S,12aS)-1-{[(Fluoromethyl)sulfanyl]carbonyl}-7-(4-fluorophenyl)-11-hydroxy-10a,12a-dimethyl-1,2,3,3a,3b,4,5,7,10,10a,10b,11,12,12a-tetradecahydrocyclopenta[5,6]naphtho[1,2-f]indazol-1-yl acetate] | 6.7 nM
CC(C)C(=O)O[C@]1(C(=O)SCC#N)CC[C@H]2[C@@H]3CCC4=Cc5c(cnn5-c5ccc(F)cc5)C[C@]4(C)[C@H]3[C@@H](O)C[C@@]21C [Example 111, (1R,3aS,3bS,10aR,10bS,11S,12aS)-1-{[(Cyanomethyl)sulfanyl]carbonyl}-7-(4-fluorophenyl)-11-hydroxy-10a,12a-dimethyl-1,2,3,3a,3b,4,5,7,10,10a,10b,11,12,12a-tetradecahydrocyclopenta[5,6]naphtho[1,2-f]indazol-1-yl 2-methylpropanoate] | 6.3 nM
CC(C)CC(=O)O[C@]1(C(=O)SCC#N)CC[C@H]2[C@@H]3CCC4=Cc5c(cnn5-c5ccc(F)cc5)C[C@]4(C)[C@H]3[C@@H](O)C[C@@]21C [Example 112, (1R,3aS,3bS,10aR,10bS,11S,12aS)-1-{[(Cyanomethyl)sulfanyl]carbonyl}-7-(4-fluorophenyl)-11-hydroxy-10a,12a-dimethyl-1,2,3,3a,3b,4,5,7,10,10a,10b,11,12,12a-tetradecahydrocyclopenta[5,6]naphtho[1,2-f]indazol-1-yl 3-methylbutanoate] | 18 nM
C[C@]12Cc3cnn(-c4ccc(F)cc4)c3C=C1CC[C@@H]1[C@@H]2[C@@H](O)C[C@@]2(C)[C@H]1CC[C@]2(OC(=O)C1CCC1)C(=O)SCC#N [Example 113, (1R,3aS,3bS,10aR,10bS,11S,12aS)-1-{[(Cyanomethyl)sulfanyl]carbonyl}-7-(4-fluorophenyl)-11-hydroxy-10a,12a-dimethyl-1,2,3,3a,3b,4,5,7,10,10a,10b,11,12,12a-tetradecahydrocyclopenta[5,6]naphtho[1,2-f]indazol-1-yl cyclobutanecarboxylate] | 11 nM
C[C@]12Cc3cnn(-c4ccc(F)cc4)c3C=C1CC[C@@H]1[C@@H]2[C@@H](O)C[C@@]2(C)[C@H]1CC[C@]2(OC(=O)CC1CCCC1)C(=O)SCC#N [Example 114, (1R,3aS,3bS,10aR,10bS,11S,12aS)-1-{[(Cyanomethyl)sulfanyl]carbonyl}-7-(4-fluorophenyl)-11-hydroxy-10a,12a-dimethyl-1,2,3,3a,3b,4,5,7,10,10a,10b,11,12,12a-tetradecahydrocyclopenta[5,6]naphtho[1,2-f]indazol-1-yl cyclopentylacetate] | 16 nM
C[C@]12Cc3cnn(-c4ccc(F)cc4)c3C=C1CC[C@@H]1[C@@H]2[C@@H](O)C[C@@]2(C)[C@H]1CC[C@]2(OC(=O)c1cccs1)C(=O)SCC#N [Example 115, (1R,3aS,3bS,10aR,10bS,11S,12aS)-1-{[(Cyanomethyl)sulfanyl]carbonyl}-7-(4-fluorophenyl)-11-hydroxy-10a,12a-dimethyl-1,2,3,3a,3b,4,5,7,10,10a,10b,11,12,12a-tetradecahydrocyclopenta[5,6]naphtho[1,2-f]indazol-1-yl thiophene-2-carboxylate] | 10 nM
Cc1cc(C(=O)O[C@]2(C(=O)SCC#N)CC[C@H]3[C@@H]4CCC5=Cc6c(cnn6-c6ccc(F)cc6)C[C@]5(C)[C@H]4[C@@H](O)C[C@@]32C)no1 [Example 116, (1R,3aS,3bS,10aR,10bS,11S,12aS)-1-{[(Cyanomethyl)sulfanyl]carbonyl}-7-(4-fluorophenyl)-11-hydroxy-10a,12a-dimethyl-1,2,3,3a,3b,4,5,7,10,10a,10b,11,12,12a-tetradecahydrocyclopenta[5,6]naphtho[1,2-f]indazol-1-yl 5-methylisoxazole-3-carboxylate] | 6.9 nM
